Results reported in patent publication US4766130A, “2-phenyl-imidazopyridin-ones and also useful as cardiotonics and anti-hypertensives” (Celamerck GmbH & Co. KG, priority 1983, dated 1988).
Counter-ions that a name gives are not always drawn.

Test system: anesthetized cats
Assay: Determination of the effect on blood pressure and the positive inotropic effect in anesthetized cats
Type: in vivo
Conditions: 2 mg/kg i.v.; for Increase in dp/dtmax in %: left ventricle contractility parameter; for Reduction in Blood Pressure in mm Hg: arterial pressure, aorta abdominalis
Experimental: Determination of the effect on blood pressure and the positive inotropic effect in anesthetized cats
The tests were carried out on cats which had been anesthetized with sodium pentobarbital (40 mg/kg i.p.). The animals breathed spontaneously. The arterial blood pressure was measured in the aorta abdominalis, using a Statham pressure transducer (P 23 Dc). To determine the positive inotropic effect, the pressure in the left ventricle was measured with a catheter-tip manometer (Millar PC-350 A). From this, the contractility parameter dp/dtmax was obtained, using an analogue differentiator. The test compounds were injected into a vena femoralis. The solvent used was physiological saline solution of Polydiol 200. Each compound was tested on at least 3 cats, dosage 2 mg/kg i.v.

COc1cc(OS(C)(=O)=O)ccc1-c1nc2c(OS(C)(=O)=O)nccc2[nH]1 [E, 2-(2-methoxy-4-methanesulfonyloxy-phenyl)-4-methanesulfonyloxy-imidazo[4,5-c]pyridine]
Duration of effective action (Half life): 29 min | Increase in dp/dtmax in %: +87% | Reduction in Blood Pressure in mm Hg (value after the slash): -27 mm Hg | Reduction in Blood Pressure in mm Hg (value before the slash): -35 mm Hg

COc1cc(OS(C)(=O)=O)ccc1C1=NC2=NCC(=O)NC2=N1 [G, 2-(2-methoxy-4-methanesulfonyloxy-phenyl)-4H-imidazo[4,5-b]pyrazin-5-one]
Duration of effective action (Half life): 5 min | Increase in dp/dtmax in %: +100% | Reduction in Blood Pressure in mm Hg (value after the slash): -27 mm Hg | Reduction in Blood Pressure in mm Hg (value before the slash): -26 mm Hg

C#CCOc1ccc(-c2nc3c(=O)[nH]ccc3[nH]2)c(OC)c1 [F, 2-(2-methoxy-4-propargyloxy-phenyl)=5H-imidazo[4,5-c]pyridin-4-one]
Duration of effective action (Half life): 8 min | Increase in dp/dtmax in %: +138% | Reduction in Blood Pressure in mm Hg (value after the slash): -47 mm Hg | Reduction in Blood Pressure in mm Hg (value before the slash): -59 mm Hg

COc1cc(OS(C)(=O)=O)ccc1C1=NC2=CCC(=O)NC2=N1 [C, 2-(2-methoxy-4-methanesulfonyloxy-phenyl)-4H-imidazo[4,5-b]pyridin-5-one]
Duration of effective action (Half life): 31 min | Increase in dp/dtmax in %: +158% | Reduction in Blood Pressure in mm Hg (value after the slash): -54 mm Hg | Reduction in Blood Pressure in mm Hg (value before the slash): -54 mm Hg

COc1cc(OS(C)(=O)=O)ccc1-c1nc2nc(OS(C)(=O)=O)ccc2[nH]1 (single isomer, unassigned) [B, 2-(2-methoxy-4-methanesulfonyloxy-phenyl)-5-methanesulfonyloxy-imidazo[4,5-b]pyridine]
Duration of effective action (Half life): 37 min | Increase in dp/dtmax in %: +53% | Reduction in Blood Pressure in mm Hg (value after the slash): -42 mm Hg | Reduction in Blood Pressure in mm Hg (value before the slash): -50 mm Hg

COc1cc(OS(C)(=O)=O)ccc1-c1nc2[nH]c(=O)ncc2[nH]1 [A, 8-(2-methoxy-4-methanesulfonyloxy-phenyl)-3(1)H-purin-2-one]
Duration of effective action (Half life): 42 min | Increase in dp/dtmax in %: +48% | Reduction in Blood Pressure in mm Hg (value after the slash): -6 mm Hg | Reduction in Blood Pressure in mm Hg (value before the slash): -8 mm Hg

COc1cc(OS(C)(=O)=O)ccc1-c1nc2c(=O)[nH]ccc2[nH]1 [D, 2-(2-methoxy-4-methanesulfonyloxy-phenyl)-5H-imidazo[4,5-c]pyridin-4-one hydrochloride]
Duration of effective action (Half life): 31 min | Increase in dp/dtmax in %: +117% | Reduction in Blood Pressure in mm Hg (value after the slash): -42 mm Hg | Reduction in Blood Pressure in mm Hg (value before the slash): -42 mm Hg
